From PMC3127977, “No relevant cardiac, pharmacokinetic or safety interactions between roflumilast and inhaled formoterol in healthy subjects: an open-label, randomised, actively controlled study” (BMC Clinical Pharmacology, 2011)

Legend:
healthy subjects = assay: Adverse event monitoring; assay type: in vivo, human
From the text: Blood and urine samples for conventional clinical laboratory safety tests were obtained at the screening visit, in the morning of each main profiling day, and on Day 19. Adverse events (AEs) were monitored throughout the study.

[1] = Serum potassium concentration on profiling days; conditions: Regimen A, Day 11
From the text: (§1) During the main profiling days, blood was sampled at each ZCG time point for the determination of serum glucose and potassium concentrations.

[2] = cited from earlier work
[3] = design: method as in PMID 20690782; conditions: cited from earlier work
[4] = Serum glucose concentration on profiling days; conditions: Regimen A, Day 11
From the text: as §1

[5] = Steady-state plasma pharmacokinetics (HPLC-MS/MS) in healthy men; oral roflumilast 500 μg once daily, inhaled formoterol 24 μg twice daily; conditions: for AUC / Cmax: male, human, plasma, oral; for AUC: AUCτ; for AUC / Cmax / C trough / CL/F: steady state, geometric mean (68% range)
Description: For Regimen A, subjects received 500 μg oral roflumilast once daily (daily dose: one tablet of roflumilast 500 μg) from the morning of Day 2 to the morning of Day 18. […] For Regimen B, subjects received 24 μg formoterol for oral inhalation delivered by a DPI device (Foradil® P) twice daily, once in the morning and once in the evening from the morning of Day 2 to the evening of Day 18.
Pre-dose blood samples for determination of trough levels were taken on Days 9 and 10 for Regimen A (morning only), and on Days 6 and 7 (morning and evening) for Regimen B. Blood samples (4.5 mL) were collected in heparinised tubes and plasma was obtained by centrifugation at 1550 g for 15 minutes. Plasma samples were stored at -20°C or below for roflumilast, and at -70°C for formoterol. Plasma concentrations of roflumilast and roflumilast N-oxide were determined using high-performance liquid chromatography coupled with tandem mass spectrometry (HPLC-MS/MS). […] Roflumilast and roflumilast N-oxide standard curves were valid up to 20 ng/mL and 40 ng/mL, respectively. Determination of roflumilast and roflumilast N-oxide was performed at Altana Pharma AG, Konstanz, Germany (Nycomed GmbH). Plasma concentrations of formoterol were determined using HPLC-MS/MS. The LLOQ in plasma was 0.4 pg/mL using a sample volume of 1.0 mL. […] Determination of formoterol was performed at pharm-analyt Labor GmbH, Baden, Austria, under the supervision of Altana Pharma AG(Nycomed GmbH).
For roflumilast, roflumilast N-oxide and formoterol, the maximum plasma concentration (Cmax) was derived directly from the plasma concentrations. The AUC from time zero to the time of the last quantifiable concentration, which corresponded to the dosing interval of each analyte (AUC0-τ), was estimated using the linear trapezoidal method. Apparent clearance at steady state (CL/F; calculated by dose/AUCτ) was reported for roflumilast only. […] The calculation of tPDE4i was based on the equation described in Lahu et al..

[6] = 500 μg, Regimen A Day 11 (roflumilast alone)
[7] = Regimen A Day 18 (roflumilast plus formoterol)
[8] = Regimen B Day 18 (formoterol plus roflumilast)
[9] = Regimen A Day 11 (roflumilast alone)

- median pre-dose serum potassium level [1]: 4.16 mmol/L
- median pre-dose serum glucose [4]: 4.75 mmol/L
- steady-state AUC and Cmax values lower ([5]; Regimen B Day 18 (co-administered with formoterol) compared with Regimen A Day 11 or Day 18): 10-15%
- changes in peak concentration and exposure ([5]; concomitant inhaled formoterol compared with roflumilast alone): less than 1%
- changes in steady-state pharmacokinetics when the other drug was added ([5]; formoterol added to roflumilast, or roflumilast added to formoterol): no relevant changes
- AUC [5, 6]: 35.8 ng·h/mL
- Cmax [5, 6]: 6.89 ng/mL
- AUC [5, 7]: 36.9 ng·h/mL
- AUC [5, 8]: 31.8 ng·h/mL
- Cmax [5, 7]: 6.43 ng/mL
- Cmax [5, 8]: 5.92 ng/mL
- C trough [5, 9]: 0.53 (0.33-0.85) μg/L
- CL/F [5, 9]: 13.9 (10.8-17.9) L/h
- C trough [5, 7]: 0.50 (0.29-0.86) μg/L
- CL/F [5, 7]: 13.5 (10.3-17.7) L/h
- C trough [5, 8]: 0.37 (0.18-0.77) μg/L
- CL/F [5, 8]: 15.7 (10.4-23.5) L/h
Structure (SMILES): O=C(Nc1c(Cl)cncc1Cl)c1ccc(OC(F)F)c(OCC2CC2)c1 [Roflumilast, 3-cyclopropylmethoxy-N-(3,5-dichloropyridin-4-yl)-4-(difluoromethoxy)benzamide]
- number of AEs (healthy subjects; Regimen A, Day 2 to Day 11): 17 AEs
- subjects who experienced AEs (healthy subjects; Regimen A, Day 2 to Day 11, n = 12): 7 subjects
- dizziness reports (healthy subjects; Regimen A, roflumilast alone): four
- myalgia reports (healthy subjects; Regimen A, roflumilast alone): four
- tremor (healthy subjects; administered alone (Regimens A and B respectively)): not observed
- median effective plasma half-life ([2]; repeated dose): 17 h
- mean bioavailability ([2]; single oral 500 μg dose, healthy individuals): 79%
- dose dependence of pharmacokinetics ([2]; within the 250-1000 μg dose range): dose-proportional
- increase in tPDE4i expected in patients with COPD compared with healthy individuals [3]: 12.6%
